The values that follow come from publication PMC6301270 (MedChemComm, 2018).

“Also recorded” adds a separate entry of the source. Like-named read-outs stand apart in the source and are kept apart here. Where only a bound is given, the exact number is not on record here.

The subject of assay [1] is T.b. brucei (strain 427) bloodstream form parasites. Nature of the assay: T.b. brucei single concentration screen (10 μM). Conditions: Trypanosoma brucei, read-out: T.b.brucei % viability (10 µM).
The test system of another assay is HeLa cells. Nature of the assay: HeLa cell assay (cytotoxicity). The assay is classed as cell-based. Conditions: Homo sapiens, HeLa cells, 48 hours, resazurin, read-out: HeLa IC50. As to the method: HeLa cells were cultured in DMEM medium supplemented with 10% fetal bovine serum and antibiotics (penicillin/streptomycin/amphotericin B) at 37 °C in a 5% CO2 incubator. On the day prior to compound addition, cells were plated in 96-well plates at 2 × 10^4 cells per well. Compounds were added to the cells in 3-fold serial dilutions and incubation at 37 °C in a 5% CO2 incubator continued for 48 hours. Twenty μl resazurin reagent (0.5 mM resazurin in phosphate-buffered saline) was added to each well and, after a 2-hour incubation, fluorescence (Exc560/Em590) was measured in a plate reader. Percentage cell viability in drug-treated wells was calculated from the fluorescent readings obtained relative to those in wells containing control, untreated cells. Plots of % cell viability vs. log[compound] were used to determine IC50 values by non-linear regression analysis using GraphPad Prism.
(Alamar Blue is a resazurin reagent that responds to reducing activity.)

Assay [2] deals with T.b. brucei (strain 427) bloodstream form parasites. Nature of the assay: Trypanosoma brucei assay, dose–response (this study). The assay is classed as cell-based. Conditions: for IC50: Trypanosoma brucei; for Selectivity index: calculated as IC50(HeLa)/IC50(T.bb).
Setting [3] is: Table 2, remaining Pathogen Box, 48 hours at 37 °C, resazurin, read-out: T. brucei brucei IC50 (μM) This study.
[4] abbreviates: Table 1, kinetoplastid category, 48 hours at 37 °C, resazurin, read-out: T. brucei brucei IC50 (μM) This study.
Setting [5] is: pIC50 values (M), read-out: pIC50 (T.b. brucei), this study (converted).

By viability is commonly meant a read-out of living cells in per cent, often relative to untreated cells. Take `CC(C)=CCC/C(C)=C\CNCCNC1C2CC3CC(C2)CC1C3` (stereo not shown) [Compound 42, CC(=CCC\C(=C/CNCCNC1C2CC3CC(CC1C3)C2)\C)C]: in assay [1], the viability at 10 µM stood at 2%. Further, the IC50 in the assay on HeLa cells (Table 2) was found to be 15 µM; in assay [2] (setting [3]), 2.3 µM. In addition, in assay [2], the Selectivity index is given as 6.5.

On to `CC1CCCCN1C(=O)NCCc1coc(-c2ccc(F)cc2)n1` (stereo not shown) [Compound 5, CC1CCCCN1C(=O)NCCc2coc(n2)c3ccc(F)cc3], for which, in assay [1], the viability at 10 µM was determined as 2.2%. The IC50 in the assay with HeLa cells (Table 1) was > 25 µM; in assay [2] (setting [4]), 0.05 µM.

Consider `Nc1nccc2ccc(-c3ccc4nccn4c3)cc12` [Compound 57, Nc1nccc2ccc(cc12)c3ccc4nccn4c3], for which the viability at 10 µM in assay [1] worked out at 3%. The values for the IC50 (in the assay with HeLa cells (Table 2); in assay [2] (setting [3])) were 5.4 µM and 1.2 µM, respectively. Moreover, the Selectivity index in assay [2] is recorded as 4.5.

In the case of `Cc1cc(C2=NOC(c3cc(Cl)c(F)c(Cl)c3)(C(F)(F)F)C2)ccc1C(=O)NCc1ccc2c(c1)C(C)(C)OB2O` (stereo not shown) [Compound 49, Cc1cc(ccc1C(=O)NCc2ccc3B(O)OC(C)(C)c3c2)C4=NOC(C4)(c5cc(Cl)c(F)c(Cl)c5)C(F)(F)F], the viability at 10 µM in assay [1] is 1%. Moreover, the IC50 is 10 µM in the assay with HeLa cells (Table 2) and 1.2 µM in assay [2] (setting [3]). Besides, the Selectivity index in assay [2] is 8.3.

As for `COc1ccc2nccc(NC(=O)C3CCN(CCc4ccc(Cl)cc4)CC3)c2n1` [Compound 47, COc1ccc2nccc(NC(=O)C3CCN(CCc4ccc(Cl)cc4)CC3)c2n1], in assay [1], the viability at 10 µM stood at 7%. In addition, the IC50 in the assay with HeLa cells (Table 2) was > 25 µM; in assay [2] (setting [3]), 29 µM.

Consider `CC(C)C(C(=O)Nc1ccc(S(=O)(=O)N(C)C)cc1)c1ccc(Cl)cc1` (stereo not shown) [Compound 55, CC(C)C(C(=O)Nc1ccc(cc1)S(=O)(=O)N(C)C)c2ccc(Cl)cc2], for which the viability at 10 µM in assay [1] was determined as 8%. For the same molecule, the values for the IC50 (in the assay on HeLa cells (Table 2); in assay [2] (setting [3])) were 12 µM and 6.5 µM, respectively. The Selectivity index in assay [2] is 1.8.

In the case of `CCCn1c(NC(=O)c2ccc3ccccc3n2)nc2ccccc21` [Compound 59, CCCn1c(NC(=O)c2ccc3ccccc3n2)nc4ccccc14], the viability at 10 µM in assay [1] was 2%. Besides, the IC50 with HeLa cells (Table 2) was > 25 µM; in assay [2] (setting [3]) it was 7.1 µM. In addition, in assay [2], the Selectivity index was > 3.5.

With `CS(=O)(=O)c1ccc(C(=O)N(CC2CCCO2)c2nc3ccccc3s2)cc1[N+](=O)[O-]` (stereo not shown) [Compound 61, CS(=O)(=O)c1ccc(cc1[N+](=O)[O-])C(=O)N(CC2CCCO2)c3nc4ccccc4s3], the viability at 10 µM in assay [1] is 0%. Besides, the IC50 was > 25 µM in the assay on HeLa cells (Table 2) and 11 µM in assay [2] (setting [3]). The Selectivity index in assay [2] is > 2.3.

Turning to `CCOC(=O)c1c(NC(=O)c2c(F)c(F)c(F)c(F)c2F)sc(C(N)=O)c1C` [Compound 37, CCOC(=O)c1c(C)c(sc1NC(=O)c2c(F)c(F)c(F)c(F)c2F)C(=O)N], in assay [1], the viability at 10 µM is 7%. Moreover, the values for the IC50 (in the assay with HeLa cells (Table 2); in assay [2] (setting [3])) were > 25 µM and 11 µM, respectively. Besides, in assay [2], the Selectivity index is given as > 2.2.

On to `Oc1c(I)cc(I)c2cccnc12` [Compound 60, Oc1c(I)cc(I)c2cccnc12], for which the viability at 10 µM in assay [1] worked out at 1%. Also, the IC50 in the assay with HeLa cells (Table 2) was > 25 µM; in assay [2] (setting [3]), 2 µM. In assay [2], the Selectivity index is > 13.

Take `CC[C@H]1CN2CCc3cc(OC)c(OC)cc3[C@@H]2C[C@@H]1C[C@H]1NCCc2cc(OC)c(OC)cc21` [Emetine, reference compound]: the IC50 with HeLa cells (Table 1) worked out at 0.4 µM.

`c1ccc(-c2nc(NC3CCCCC3)cc(C3CC3)n2)nc1` [Compound 35, C1CCC(CC1)Nc2cc(nc(n2)c3ccccn3)C4CC4]: the viability at 10 µM in assay [1] was found to be 2%. Also, the IC50 with HeLa cells (Table 2) was > 25 µM; in assay [2] (setting [3]), 0.83 µM; in assay [2] (setting [5]), < 1 µM. Besides, in assay [2], the “T.b. brucei inhibition in words, this study” value is on record as “sub-micromolar range; also recorded: activity in the nanomolar range”.

For the molecule `CN(C)c1cc(NC(=O)Nc2ccccc2)c2ccccc2n1` [Compound 52, CN(C)c1cc(NC(=O)Nc2ccccc2)c3ccccc3n1], the viability at 10 µM in assay [1] came to 1%. The results for the IC50 (with HeLa cells (Table 2); in assay [2] (setting [3])) were > 25 µM and 4.7 µM, respectively. The Selectivity index in assay [2] is on record as > 5.3.

Consider `COC(=O)c1c(NC(=O)c2c(F)c(F)c(F)c(F)c2F)sc2c1CCCCC2` [Compound 38, COC(=O)c1c2CCCCCc2sc1NC(=O)c3c(F)c(F)c(F)c(F)c3F], for which, in assay [1], the viability at 10 µM came to 7%. The IC50 is > 25 µM with HeLa cells (Table 2) and 11 µM in assay [2] (setting [3]). Also, in assay [2], the Selectivity index is listed as > 2.2.

Take `Cc1cnc(N2CCN[C@@H](Cc3ccccc3)C2)nc1Oc1ccc(-n2ccnc2)cc1` [Compound 45, Cc1cnc(nc1Oc2ccc(cc2)n3ccnc3)N4CCN[C@@H](Cc5ccccc5)C4]: the viability at 10 µM in assay [1] stood at 10%. Moreover, the IC50 is > 25 µM with HeLa cells (Table 2) and 5.1 µM in assay [2] (setting [3]). Also, the Selectivity index in assay [2] is recorded as > 4.9.

Consider `O=C(Nc1nc(-c2ccccn2)cs1)c1cncn1-c1ccccc1` [Compound 41, O=C(Nc1nc(cs1)c2ccccn2)c3cncn3c4ccccc4], for which the viability at 10 µM in assay [1] came to 1%. The values for the IC50 (with HeLa cells (Table 2); in assay [2] (setting [3])) were 5.1 µM and 1.1 µM, respectively. Besides, in assay [2], the Selectivity index is 4.6.

On to `OCCc1ccc(Nc2nccc(-c3nnc4ccccn34)n2)cc1` [Compound 58, OCCc1ccc(Nc2nccc(n2)c3nnc4ccccn34)cc1], for which the viability at 10 µM in assay [1] was 11%. Moreover, the IC50 in the assay with HeLa cells (Table 2) is > 25 µM; in assay [2] (setting [3]), 1.5 µM. For the same molecule, the Selectivity index in assay [2] is > 17.

As for `CN1CCC(NCc2cccc(-c3ccc(S(=O)(=O)NCc4ccccc4)cc3)c2)CC1` [Compound 56, CN1CCC(CC1)NCc2cccc(c2)c3ccc(cc3)S(=O)(=O)NCc4ccccc4], in assay [1], the viability at 10 µM was determined as 2%. The figures for the IC50 (in the assay with HeLa cells (Table 2); in assay [2] (setting [3]); in assay [2] (setting [5])) were 13 µM, 0.22 µM and < 1 µM, respectively. Besides, the “T.b. brucei inhibition in words, this study” value in assay [2] was “sub-micromolar range; also recorded: activity in the nanomolar range”.

In the case of `N=C(N)c1ccc(OCCCCCOc2ccc(C(=N)N)cc2)cc1` [Pentamidine, reference compound], in assay [2] (setting [4]), the IC50 worked out at 0.0031 µM.

On to `CC(C)n1nc(-c2cc3c(Cl)cccc3[nH]2)c2c(N)ncnc21` [Compound 50, CC(C)n1nc(-c2cc3c(Cl)cccc3[nH]2)c2c(N)ncnc12], for which, in assay [1], the viability at 10 µM came to 4%. For the same molecule, the results for the IC50 (with HeLa cells (Table 2); in assay [2] (setting [3])) were > 25 µM and 4.3 µM, respectively. Also, in assay [2], the Selectivity index is given as > 5.8.

With `COc1cccc2c(C)nc(N=C(N)N)nc12` [MMV000907, COc1cccc2c(C)nc(N=C(N)N)nc12], the viability at 10 µM in assay [1] came to 79%.

Turning to `O=C(NC1CC1)c1ccc(CSCc2ccccc2Cl)o1` [MMV007803, Clc1ccccc1CSCc2oc(cc2)C(=O)NC3CC3], in assay [1], the viability at 10 µM came to 101%.

`CC(C)(C)c1ccc(N[C@@H]2CCCC[C@H]2NC(=O)c2ccco2)cc1` [MMV675969, CC(C)(C)c1ccc(N[C@@H]2CCCC[C@H]2NC(=O)c3occc3)cc1]: the viability at 10 µM in assay [1] worked out at 114%.

As to `CCCCOC(=O)Nc1cc2nc(C3CCCCC3)[nH]c2cc1N1CCCC1` [MMV687730, CCCCOC(=O)Nc1cc2nc([nH]c2cc1N3CCCC3)C4CCCCC4], the viability at 10 µM in assay [1] is 61%.

Consider `Cc1cc(Cl)ccc1NC(=O)CCc1ccc(S(=O)(=O)NCC(C)C)cc1` [MMV161996, CC(C)CNS(=O)(=O)c1ccc(CCC(=O)Nc2ccc(Cl)cc2C)cc1], for which the viability at 10 µM in assay [1] amounted to 97%.

Regarding `O=C(C1CCN(c2cc(-n3cccc3)ncn2)CC1)N1CCc2ccccc2C1` [MMV687172, O=C(C1CCN(CC1)c2cc(ncn2)n3cccc3)N4CCc5ccccc5C4], the viability at 10 µM in assay [1] was 93%.

As for `CCCn1c(CNc2ccccc2O)nc2ccccc21` [MMV676445, CCCn1c(CNc2ccccc2O)nc3ccccc13], the viability at 10 µM in assay [1] came out at 109%.

With `CC(=O)NCC1CN(c2ccc(-c3ccc(CO)cc3)c(F)c2)C(=O)O1` (stereo not shown) [MMV688508, CC(=O)NCC1CN(C(=O)O1)c2ccc(c(F)c2)c3ccc(CO)cc3], the viability at 10 µM in assay [1] is 81%.

For `CC1(COc2ccc(N3CCC(Oc4ccc(OC(F)(F)F)cc4)CC3)cc2)Cn2cc([N+](=O)[O-])nc2O1` (stereo not shown) [MMV688262, CC1(COc2ccc(cc2)N3CCC(CC3)Oc4ccc(OC(F)(F)F)cc4)Cn5cc(nc5O1)N(=O)=O], in assay [1], the viability at 10 µM was found to be 74%.

`O=C(CCC1CCCCC1)Nc1cccc(-c2nnc(-c3ccco3)o2)c1` [MMV676589, O=C(CCC1CCCCC1)Nc2cccc(c2)c3oc(nn3)c4occc4]: in assay [1], the viability at 10 µM was 95%.

With `CC(C)(C)c1cc(C(=O)N2CCN(c3nccnc3C#N)CC2)n(Cc2ccccc2)n1` [MMV023949, CC(C)(C)c1cc(C(=O)N2CCN(CC2)c3nccnc3C#N)n(Cc4ccccc4)n1], the viability at 10 µM in assay [1] was 115%.

For `CC(C)(C)c1cnc(NC(=O)c2ccccc2O)s1` [Compound 64, CC(C)(C)c1cnc(NC(=O)c2ccccc2O)s1], the viability at 10 µM in assay [1] turned out to be 77%.

For `COc1cncc(-c2cncc(N3CCN(c4ccncc4)CC3)n2)c1` [MMV085071, COc1cncc(c1)c2cncc(n2)N3CCN(CC3)c4ccncc4], the viability at 10 µM in assay [1] was determined as 79%.

On to `N#Cc1ccc(-c2cnc(N)c(-c3ccc(C(N)=O)cc3)n2)cc1` [MMV085499, NC(=O)c1ccc(cc1)c2nc(cnc2N)c3ccc(cc3)C#N], for which, in assay [1], the viability at 10 µM came to 31%.
